Series [1] has as its system Amaranth (Amaranthus viridis). Kind of series: Upland foliar application test, amaranth. It is filed as in vivo. Particulars: 960 h, foliar application at stage of 2-3 leaves, 50 g ai/a, emulsion, 40th day after spray, read-out: Herbicidal effects Amaranth (Amaranthus viridis). The method, then: (§1) Resin-made 1/1000-are pots were filled with the soil of an upland field. After they were fertilized, cotton and soybean were seeded and 3 cm soil covering was applied. In addition, amaranth, common lambs-quarters, barnyardgrass, green foxtail, large crabgrass and johnsongrass were seeded and 1 cm soil covering was applied. One day later, a wettable powder prepared from a predetermined amount of each test compound in a similar manner to the procedures described in Formulation Example 1 was diluted with water and then sprayed evenly at an application rate equal to 10 l per are onto the surface of the soil by means of a pressure-operated sprayer. The weeds and crops were allowed to grow in a green house and influence to them were observed on the 50th day after the spray. The degree of damages of each test plant and the degree of injury to each crop were determined by measuring fresh weight in each group and indicated by % calculated according to the following formula. [formula]
(§2) Resin-made 1/1000-are pots were filled with the soil of an upland field. After they were fertilized, cotton and soybean were seeded and 3 cm soil covering was applied. Five days later, amaranth, common lambsquarters, barnyardgrass, green foxtail, large crabgrass and johnsongrass were seeded and 1 cm soil covering was applied. They were allowed to grow in a green house. When each plant grew to the stage of 2-3 leaves, an emulsion formulated from a predetermined amount of each test compound in a similar manner to the procedures described in Formulation Example 11 was diluted with water and then sprayed at a predetermined application rate by means of a pressure-operated sprayer. The application rate was controlled at 5 l per are. Influence to the crops and weeds were observed on the 40th day after the spray of the herbicides. The results are shown in Table 4 in which the degree of damages of each test plant and the degree of injury to each crop are shown in a similar manner to Test 2.

Series [2] concerns Amaranth (Amaranthus viridis). In words: Upland soil application test, amaranth. It is filed as in vivo. Particulars: 1200 h, soil application one day after seeding, 50 g ai/a, wettable powder, fresh weight on 50th day after spray, read-out: Herbicidal effects Amaranth (Amaranthus viridis). The protocol:
as §1

The test system of series [3] is Soybean (Glycine max). Kind of series: Upland foliar application test, crop injury soybean. Particulars: foliar application at stage of 2-3 leaves, 50 g ai/a, emulsion, 40th day after spray. The format is in vivo. The method, then: as §2
For series [4], the system named is Cotton (Gossypium indicum). Kind of series: Upland foliar application test, crop injury cotton. It is filed as in vivo. Particulars: foliar application at stage of 2-3 leaves, 50 g ai/a, emulsion, 40th day after spray. The method, then:
as §1, §2

Series [5] relates to Barnyardgrass (Echinochloa crusgalli). In words: Upland soil application test, barnyardgrass. It is filed as in vivo. Particulars: Echinochloa crus-galli, 1200 h; soil application one day after seeding, 50 g ai/a, wettable powder, fresh weight on 50th day after spray; read-out: Herbicidal effects Barnyardgrass (Echinochloa crusgalli). The protocol: as §1
The subject of series [6] is common lambsquarters. In words: Upland soil application test, common lambsquarters. Particulars: Chenopodium album, 1200 h; soil application one day after seeding, 50 g ai/a, wettable powder, fresh weight on 50th day after spray; read-out: Herbicidal effects Common lambquarters. The format is in vivo. The protocol:
as §1

In series [7] the test system is Soybean (Glycine max). In words: Upland soil application test, crop injury soybean. The format is in vivo. Particulars: soil application one day after seeding, 50 g ai/a, wettable powder, fresh weight on 50th day after spray. The protocol: as §1
The test system of series [8] is Foxtail (Setaria viridis). In words: Upland soil application test, green foxtail. It is filed as in vivo. Particulars: 1200 h, soil application one day after seeding, 50 g ai/a, wettable powder, fresh weight on 50th day after spray, read-out: Herbicidal effects Foxtail (Setaria viridis). The protocol:
as §1

Series [9] has as its system Johnsongrass. Kind of series: Upland soil application test, johnsongrass. The format is in vivo. Particulars: Sorghum halepense, 1200 h; soil application one day after seeding, 50 g ai/a, wettable powder, fresh weight on 50th day after spray; read-out: Herbicidal effects Johnsongrass. The protocol:
as §1

The subject of series [10] is Johnsongrass. Kind of series: Upland foliar application test, johnsongrass. It is filed as in vivo. Particulars: Sorghum halepense, 960 h; foliar application at stage of 2-3 leaves, 50 g ai/a, emulsion, 40th day after spray; read-out: Herbicidal effects Johnsongrass. The method, then:
as §2

For series [11], the system named is Crabgrass (Digitaria adscendens). Kind of series: Upland foliar application test, large crabgrass. The format is in vivo. Particulars: 960 h, foliar application at stage of 2-3 leaves, 50 g ai/a, emulsion, 40th day after spray, read-out: Herbicidal effects Crabgrass (Digitaria adscendens). The protocol:
as §1, §2

Series [12] relates to Cotton (Gossypium indicum). Kind of series: Upland soil application test, crop injury cotton. The format is in vivo. Particulars: soil application one day after seeding, 50 g ai/a, wettable powder, fresh weight on 50th day after spray. The protocol:
as §1

Series [13] relates to ALS (acetolactate syntase) from pea seedlings. Kind of series: ALS (acetolactate syntase) inhibition test, pea enzyme. The format is biochemical. Particulars: 10,000 ppm (0.5 μg/0.5 ml) of compound; 1 hour at 30° C.; absorbance at 525 nm. The method, then: (§3) To determine the selectivity in enzyme level between crops and weeds, an ALS inhibition test was conducted using pea as a typical broadleaf crop and barnyardgrass as a representative gramineous weeds.
(§4) After seeds of pea and barnyardgrass were allowed to germinate at 25° C. for 8-14 days in a dark place, partially-purified suspensions (Suspensions A) of acetolactate syntase were separately obtained from the seedlings in accordance with the procedures described in the literature, Plant Physiology, 75, 827-831. In a test tube, 0.5 mg of one of test compounds was weighed, followed by the addition of 0.15 ml of a 20 mM K2 HPO4 solution and 0.25 ml of a reaction substrate medium which consisted of 40 mM of K2 HPO4, 40 mM of sodium pyruvate, 1 mM of TPP, 1 mM of MgCl2 and 20 μM of FAD so that 0.4 ml of a reaction solution (Solution B) was prepared. Added to 0.4 ml of Solution B was 0.1 ml of Suspension A. After the resultant mixture was shaken for 1 hour in a thermostat water bath controlled at 30° C., 50 μl of 6N sulfuric acid were added to terminate the reaction.
(§5) Next, the test tube with the reaction-terminated liquid mixture contained therein was transferred into a thermostat water bath controlled at 60° C. and was heated for 15 minutes. Thereafter, 0.5 ml of a 0.5% creatine solution and 0.5 ml of a 5% alkaline α-naphthol solution were added, and the resultant mixture was maintained at 60° C. for 15 minutes. As a result, the test solution developed a pink-to-red color. After the above operation, the absorbance of the test solution at 525 nm was measured by a spectrophotometer (Absorbance 1 of Test Compound).
(§6) Further, the absorbance (Absorbance 2 of Blank) of a solution obtained by subjecting a portion of Solution B to the above procedures without addition of any test compound and the absorbance (Absorbance 3 of sulfuric acid) of another solution obtained by subjecting another portion of Solution B to the above procedures which using 50 μl of 6N sulfuric acid as a test compound were also measured.

Series [14] deals with common lambsquarters. Kind of series: Upland foliar application test, common lambsquarters. The format is in vivo. Particulars: Chenopodium album, 960 h; foliar application at stage of 2-3 leaves, 50 g ai/a, emulsion, 40th day after spray; read-out: Herbicidal effects Common lambquarters. The method, then: as §2
Series [15] concerns Foxtail (Setaria viridis). In words: Upland foliar application test, green foxtail. It is filed as in vivo. Particulars: 960 h, foliar application at stage of 2-3 leaves, 50 g ai/a, emulsion, 40th day after spray, read-out: Herbicidal effects Foxtail (Setaria viridis). The method, then: as §1, §2
Series [16] has as its system ALS (acetolactate syntase) from barnyardgrass seedlings. In words: ALS (acetolactate syntase) inhibition test, barnyardgrass enzyme. It is filed as biochemical. Particulars: 10,000 ppm (0.5 μg/0.5 ml) of compound; 1 hour at 30° C.; absorbance at 525 nm. The protocol: as §3, §4, §5, §6
Series [17] has as its system Crabgrass (Digitaria adscendens). In words: Upland soil application test, large crabgrass. Particulars: 1200 h, soil application one day after seeding, 50 g ai/a, wettable powder, fresh weight on 50th day after spray, read-out: Herbicidal effects Crabgrass (Digitaria adscendens). It is filed as in vivo. The method, then: as §1
In series [18] the test system is Barnyardgrass (Echinochloa crusgalli). Kind of series: Upland foliar application test, barnyardgrass. The format is in vivo. Particulars: Echinochloa crus-galli, 960 h; foliar application at stage of 2-3 leaves, 50 g ai/a, emulsion, 40th day after spray; read-out: Herbicidal effects Barnyardgrass (Echinochloa crusgalli). The method, then:
as §2

Series [19] concerns johnsongrass emerging from rhizome. In words: Application test on johnsongrass emerging from rhizome. It is filed as in vivo. Particulars: foliar application at stage of 4-5 leaves, application rate of active ingredient 20 (unit not given), emulsion, 50th day after spray. The method, then:
as §1
Resin-made 1/1000-are pots were filled with the soil of an upland field. After they were fertilized, rhizome of johnsongrass were transplanted to the pots and 3 cm soil covering was applied. They were allowed to grow in a green house. When each johnsongrass grew to the stage of 4-5 leaves, an emulsion formulated from a predetermined amount of each test compound in a similar manner to the procedures described in Formulation Example 11 was diluted with water and then sprayed at a predetermined application rate by means of a pressure-operated sprayer. The application rate was controlled at 5 l per are. The effect of each compound against the johnsongrass emerging from its rhizome was observed on the 50th day after the spray of the herbicides. The results are shown in Table 5 in which the herbicidal effect against johnsongrass is shown in a similar manner to Test 2.

Molecules are shown by their SMILES.

As to `COC(=O)c1ccccc1Oc1nc(OC)cc(OC)n1` [Comp. Comp'd A, reference compound], the pest or weed control at 5000 g/ha in series [1], in series [2], in [5], in series [6], in series [8] and in series [9] was 100% in each case. In addition, the pest or weed control at 5000 g/ha in [10], in [11], in series [14], in series [15], in series [17] and in series [18] was 100% each time. For the same compound, the “Crop injury Soybean (Glycine max)” value in series [3] and in [7] was 100% throughout. For the same compound, the “Crop injury Cotton (Gossypium indicum)” value in series [4] and in series [12] was 100% in each case. The “Enzymoreaction inhibition rate (%) Pea” value in series [13] was found to be 72%. In addition, the “Enzymoreaction inhibition rate (%) Barnyardgrass” value in series [16] is on record as 73%. Moreover, the “Herbicidal effect against johnsongrass emerging from rhizome” value (from here on “Herbicidal effect”) in [19] is recorded as 60%.

As to `CCCOC(OCCC)c1ccccc1Oc1nc(OC)cc(OC)n1` [Compound No. 1], the pest or weed control at 5000 g/ha in series [1], in series [2], in series [5], in series [6], in [8] and in series [9] was 100% throughout. The pest or weed control at 5000 g/ha in [10], in series [11], in series [14], in [15], in series [17] and in series [18] was 100% throughout. For the same compound, the “Crop injury Soybean (Glycine max)” value in series [3] and in series [7] was 0% in each case. Moreover, the “Crop injury Cotton (Gossypium indicum)” value in [4] and in series [12] was 0% in each case. Also, the “Enzymoreaction inhibition rate (%) Pea” value in series [13] is listed as 0%. Further, the “Enzymoreaction inhibition rate (%) Barnyardgrass” value in [16] is on record as 100%. Further, the “Herbicidal effect” value in series [19] was 100%.

On to `CCCCCCCOC(OCCCCCCC)c1ccccc1Oc1nc(OC)cc(OC)n1` [Compound No. 6], for which the pest or weed control at 5000 g/ha in series [1] came out at 95%; in series [2], 95%; in [5], 95%; in series [6], 90%; in [8], 100%; in series [9], 100%. Also, the pest or weed control at 5000 g/ha in series [10] was 100%; in series [11] it was 90%; in series [14], 90%; in series [15] it was 95%; in series [17], 85%; in series [18], 95%. In addition, the “Crop injury Soybean (Glycine max)” value in series [3] and in series [7] was 0% each time. For the same compound, the “Crop injury Cotton (Gossypium indicum)” value in series [4] and in series [12] was 0% each time. Also, the “Enzymoreaction inhibition rate (%) Pea” value in [13] turned out to be 0%. Moreover, the “Enzymoreaction inhibition rate (%) Barnyardgrass” value in [16] turned out to be 100%. Further, in [19], the “Herbicidal effect” value is 85%.

For `CCCCOC(OCCCC)c1ccccc1Oc1nc(OC)cc(OC)n1` [Compound No. 3, 2-(4,6-dimethoxypyrimidin-2-yloxy)benzaldehyde di-n-butylacetal], the pest or weed control at 5000 g/ha in [1], in series [2], in series [5], in series [6], in [8] and in series [9] was 100% each time. Besides, the pest or weed control at 5000 g/ha in [10], in series [11], in series [14], in [15], in series [17] and in series [18] was 100% in each case. The “Crop injury Soybean (Glycine max)” value in [3] and in [7] was 0% in each case. Also, the “Crop injury Cotton (Gossypium indicum)” value in [4] and in [12] was 0% in each case. For the same compound, the “Enzymoreaction inhibition rate (%) Pea” value in [13] is listed as 0%. In addition, the “Enzymoreaction inhibition rate (%) Barnyardgrass” value in series [16] is listed as 100%. Also, the “Herbicidal effect” value in series [19] was 100%.

The record behind these values is patent US5178662A, “Benzaldehyde acetal compounds, preparation process thereof, and herbicidal compositions containing the same as active ingredients” (Mitsui Toatsu Chemicals, Inc., priority 1990, dated 1993).
